For orientation: IC50 means the concentration at which inhibition is half-maximal.

In assay [1] the target is T1, human orexin-2 receptor (Homo sapiens (Human), UniProt O43614). Put plainly: radioligand binding assay, hOX2R BIND. The conditions noted are these: membranes from CHO cells expressing OX2 receptor; read-out: hOX2R BIND hKi. The protocol: (§1) In a typical experiment the OX1 and OX2 receptor antagonistic activity of the compounds of the present invention was determined in accordance with the following experimental method. For intracellular calcium measurements, Chinese hamster ovary (CHO) cells expressing the rat orexin-1 receptor or the human orexin-2 receptor, are grown in Iscove's modified DMEM containing 2 mM L-glutamine, […], 1% hypoxanthine-thymidine supplement, 100 U/ml penicillin, 100 μg/ml streptomycin and 10% heat-inactivated fetal calf serum (FCS). The cells are seeded at 20,000 cells/well into Becton-Dickinson black 384-well clear bottom sterile plates coated with poly-D-lysine. All reagents were from GIBCO-Invitrogen Corp. The seeded plates are incubated overnight at 37° C. and 5% CO2. Ala-6,12 human orexin-A as the agonist is prepared as a 1 mM stock solution in 1% bovine serum albumin (BSA) and diluted in assay buffer (HBSS containing 20 mM HEPES, 0.1% BSA and 2.5 mM probenecid, pH7.4) for use in the assay at a final concentration of 70 pM. Test compounds are prepared as 10 mM stock solution in DMSO, then diluted in 384-well plates, first in DMSO, then assay buffer. On the day of the assay, cells are washed 3 times with 100 μl assay buffer and then incubated for 60 min (37° C., 5% CO2) in 60 μl assay buffer containing 1 μM Fluo-4AM ester, 0.02% pluronic acid, and 1% BSA. The dye loading solution is then aspirated and cells are washed 3 times with 100 μl assay buffer. 30 μl of that same buffer is left in each well. Within the Fluorescent Imaging Plate Reader (FLIPR, Molecular Devices), test compounds are added to the plate in a volume of 25 μl, incubated for 5 min and finally 25 μl of agonist is added. Fluorescence is measured for each well at 1 second intervals for 5 minutes and the height of each fluorescence peak is compared to the height of the fluorescence peak induced by 70 pM Ala-6,12 orexin-A with buffer in place of antagonist. […] Alternatively, compound potency can be assessed by a radioligand binding assay (described in Bergman et. al. Bioorg. Med. Chem. Lett. 2008, 18, 1425-1430) in which the inhibition constant (Ki) is determined in membranes prepared from CHO cells expressing either the OX1 or OX2 receptor. The intrinsic orexin receptor antagonist activity of a compound which may be used in the present invention may be determined by these assays.

Assay [2] deals with T1, human orexin-2 receptor. Briefly: FLIPR Ca2+ Flux Assay, hOX2R FLIPR. The conditions noted are these: CHO cells, 70 pM Ala-6,12 human orexin-A agonist. Format: cell-based. As to the method: as §1
For assay [3], the target named is hOX1R (orexin-1 receptor) (Rattus norvegicus, UniProt P56718). Put plainly: FLIPR Ca2+ Flux Assay, hOX1R FLIPR. Format: cell-based. To be noted: CHO cells, 70 pM Ala-6,12 human orexin-A agonist. As to the method: as §1
(In general: Calcium flux is commonly read through the fluorescence of an indicator in the cells.)

T1 sequence (O43614 whole entry): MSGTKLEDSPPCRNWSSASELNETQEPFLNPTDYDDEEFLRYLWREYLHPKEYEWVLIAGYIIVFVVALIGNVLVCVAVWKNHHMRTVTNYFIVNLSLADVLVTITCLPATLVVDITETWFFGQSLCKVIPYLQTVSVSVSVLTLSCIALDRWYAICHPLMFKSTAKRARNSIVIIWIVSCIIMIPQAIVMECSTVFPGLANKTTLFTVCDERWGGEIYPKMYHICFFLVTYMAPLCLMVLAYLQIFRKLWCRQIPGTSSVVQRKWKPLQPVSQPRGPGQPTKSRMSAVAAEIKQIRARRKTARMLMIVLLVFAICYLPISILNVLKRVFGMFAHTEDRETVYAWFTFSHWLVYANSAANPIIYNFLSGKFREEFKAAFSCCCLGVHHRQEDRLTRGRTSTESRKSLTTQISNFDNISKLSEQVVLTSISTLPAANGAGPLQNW

As to `COC(=O)c1c(C#N)ccnc1O[C@@H]1CC[C@@H](C)N(C(=O)c2ccccc2-n2nccn2)C1` [Example 1, Methyl 4-cyano-2-{[(3R,6R)-6-methyl-1-{[2-(2H-1,2,3-triazol-2-yl)phenyl]carbonyl}piperidin-3-yl]oxy}pyridine-3-carboxylate], the Ki on human orexin-2 receptor [1] was 0.46 nM. In addition, the IC50 amounted to 19 nM at human orexin-2 receptor [2] and 749 nM in assay [3].
On the same counts, the results for `COC(=O)c1c(C#N)ccnc1O[C@@H]1CC[C@@H](C)N(C(=O)c2ccccc2-c2nc(C)no2)C1` [Example 2, Methyl 4-cyano-2-{[(3R,6R)-6-methyl-1-{[2-(3-methyl-1,2,4-oxadiazol-5-yl)phenyl]carbonyl}piperidin-3-yl]oxy}pyridine-3-carboxylate] are 0.37 nM, 20.8 nM and 584 nM.
For the molecule `COC(=O)c1c(C#N)ccnc1O[C@@H]1CC[C@@H](C)N(C(=O)c2ccc(OC)nc2-n2nccn2)C1` [Example 3, methyl 4-cyano-2-{[(3R,6R)-1-{[6-methoxy-2-(2H-1,2,3-triazol-2-yl)pyridin-3-yl]carbonyl}-6-methylpiperidin-3-yl]oxy}pyridine-3-carboxylate], the Ki on human orexin-2 receptor [1] came out at 1.9 nM. At human orexin-2 receptor [2], this molecule showed an IC50 of 33.8 nM.
In the case of `COC(=O)c1c(C#N)ccnc1O[C@@H]1CC[C@@H](C)N(C(=O)c2cccc(F)c2-n2nccn2)C1` [Example 4, methyl 4-cyano-2-{[(3R,6R)-1-{[3-fluoro-2-(2H-1,2,3-triazol-2-yl)phenyl]carbonyl}-6-methylpiperidin-3-yl]oxy}pyridine-3-carboxylate], the Ki at human orexin-2 receptor [1] was 0.44 nM. Further, the concentration for half-maximal inhibition (IC50) is 15.7 nM on human orexin-2 receptor [2] and 1020 nM in assay [3].
For `COC(=O)c1c(C#N)ccnc1O[C@@H]1CC[C@@H](C)N(C(=O)c2ccc(F)cc2-n2nccn2)C1` [Example 5, methyl 4-cyano-2-{[(3R,6R)-1-{[4-fluoro-2-(2H-1,2,3-triazol-2-yl)phenyl]carbonyl}-6-methylpiperidin-3-yl]oxy}pyridine-3-carboxylate] the same measures were 0.66 nM, 21.8 nM and 1010 nM.
As for `COC(=O)c1c(C#N)ccnc1O[C@@H]1CC[C@@H](C)N(C(=O)c2cc(F)ccc2-n2nccn2)C1` [Example 6, methyl 4-cyano-2-{[(3R,6R)-1-{[5-fluoro-2-(2H-1,2,3-triazol-2-yl)phenyl]carbonyl}-6-methylpiperidin-3-yl]oxy}pyridine-3-carboxylate], the Ki at human orexin-2 receptor [1] was determined as 0.42 nM. Further, the values for the IC50 (on human orexin-2 receptor [2]; in assay [3]) were 18.2 nM and 971 nM, respectively.
For `COC(=O)c1c(C#N)ccnc1O[C@@H]1CC[C@@H](C)N(C(=O)c2c(F)cccc2-n2nccn2)C1` [Example 7, methyl 4-cyano-2-{[(3R,6R)-1-{[2-fluoro-6-(2H-1,2,3-triazol-2-yl)phenyl]carbonyl}-6-methylpiperidin-3-yl]oxy}pyridine-3-carboxylate] the same measures were 0.33 nM, 24 nM and 432 nM.
Take `COC(=O)c1c(C#N)ccnc1O[C@@H]1CC[C@@H](C)N(C(=O)c2cc(F)ccc2-c2nc(C)no2)C1` [Example 8, methyl 4-cyano-2-{[(3R,6R)-1-{[5-fluoro-2-(3-methyl-1,2,4-oxadiazol-5-yl)phenyl]carbonyl}-6-methylpiperidin-3-yl]oxy}pyridine-3-carboxylate]: the Ki at human orexin-2 receptor [1] is 0.44 nM. The results for the IC50 (at human orexin-2 receptor [2]; in assay [3]) were 24.9 nM and 1470 nM, respectively.
Take `COC(=O)c1c(C#N)ccnc1O[C@@H]1CC[C@@H](C)N(C(=O)c2c(F)cccc2-c2nc(C)no2)C1` [Example 9, methyl 4-cyano-2-{[(3R,6R)-1-{[2-fluoro-6-(3-methyl-1,2,4-oxadiazol-5-yl)phenyl]carbonyl}-6-methylpiperidin-3-yl]oxy}pyridine-3-carboxylate]: at human orexin-2 receptor [1], the Ki came to 1.1 nM. On human orexin-2 receptor [2], the 50% inhibitory concentration (IC50) was found to be 38.8 nM.
As for `COC(=O)c1c(C#N)ccnc1O[C@@H]1CC[C@@H](C)N(C(=O)c2ccccc2-c2noc(C)n2)C1` [Example 10, methyl 4-cyano-2-{[(3R,6R)-6-methyl-1-{[2-(5-methyl-1,2,4-oxadiazol-3-yl)phenyl]carbonyl}piperidin-3-yl]oxy}pyridine-3-carboxylate], the Ki on human orexin-2 receptor [1] was 0.53 nM. Moreover, the IC50 on human orexin-2 receptor [2] was found to be 6.5 nM; in assay [3] it was 698 nM.
Consider `COC(=O)c1c(C#N)ccnc1O[C@@H]1CC[C@@H](C)N(C(=O)c2cccc(F)c2-c2noc(C)n2)C1` [Example 11, methyl 4-cyano-2-{[(3R,6R)-1-{[3-fluoro-2-(5-methyl-1,2,4-oxadiazol-3-yl)phenyl]carbonyl}-6-methylpiperidin-3-yl]oxy}pyridine-3-carboxylate], for which the Ki on human orexin-2 receptor [1] was 0.5 nM. Moreover, the IC50 on human orexin-2 receptor [2] was found to be 16.2 nM; in assay [3], 956 nM.
As to `COC(=O)c1c(C#N)ccnc1O[C@@H]1CC[C@@H](C)N(C(=O)c2ccc(F)cc2-c2noc(C)n2)C1` [Example 12, methyl 4-cyano-2-{[(3R,6R)-1-{[4-fluoro-2-(5-methyl-1,2,4-oxadiazol-3-yl)phenyl]carbonyl}-6-methylpiperidin-3-yl]oxy}pyridine-3-carboxylate], the Ki on human orexin-2 receptor [1] was found to be 1.2 nM. The same molecule yielded an IC50 on human orexin-2 receptor [2] of 30.2 nM.
On to `COC(=O)c1c(C#N)ccnc1O[C@@H]1CC[C@@H](C)N(C(=O)c2cc(F)ccc2-c2noc(C)n2)C1` [Example 13, methyl 4-cyano-2-{[(3R,6R)-1-{[5-fluoro-2-(5-methyl-1,2,4-oxadiazol-3-yl)phenyl]carbonyl}-6-methylpiperidin-3-yl]oxy}pyridine-3-carboxylate], for which, on human orexin-2 receptor [1], the Ki amounted to 0.5 nM. Also, the figures for the IC50 (on human orexin-2 receptor [2]; in assay [3]) were 16.8 nM and 1030 nM, respectively.
In the case of `COC(=O)c1c(C#N)ccnc1O[C@@H]1CC[C@@H](C)N(C(=O)c2c(F)cccc2-c2noc(C)n2)C1` [Example 14, methyl 4-cyano-2-{[(3R,6R)-1-{[2-fluoro-6-(5-methyl-1,2,4-oxadiazol-3-yl)phenyl]carbonyl}-6-methylpiperidin-3-yl]oxy}pyridine-3-carboxylate], the Ki at human orexin-2 receptor [1] amounted to 0.99 nM. The molecule also gave a 50% inhibitory concentration (IC50) at human orexin-2 receptor [2] of 14.5 nM.
With `COC(=O)c1c(C#N)ccnc1O[C@@H]1CC[C@@H](C)N(C(=O)c2ccc(F)cc2-c2nc(C)no2)C1` [Example 15, methyl 4-cyano-2-{[(3R,6R)-1-{[4-fluoro-2-(3-methyl-1,2,4-oxadiazol-5-yl)phenyl]carbonyl}-6-methylpiperidin-3-yl]oxy}pyridine-3-carboxylate], the Ki at human orexin-2 receptor [1] came out at 2.2 nM. Moreover, the concentration for half-maximal inhibition (IC50) is 31.8 nM at human orexin-2 receptor [2] and 3080 nM in assay [3].
For the molecule `COC(=O)c1c(C#N)ccnc1O[C@@H]1CC[C@@H](C)N(C(=O)c2cccc(C)c2-n2nccn2)C1` [Example 16, methyl 4-cyano-2-{[(3R,6R)-6-methyl-1-{[3-methyl-2-(2H-1,2,3-triazol-2-yl)phenyl]carbonyl}piperidin-3-yl]oxy}pyridine-3-carboxylate], the Ki on human orexin-2 receptor [1] stood at 0.52 nM. This molecule also yielded an IC50 on human orexin-2 receptor [2] of 27.7 nM.
On the same counts, the results for `COC(=O)c1c(C#N)ccnc1O[C@@H]1CC[C@@H](C)N(C(=O)c2ccc(C)cc2-n2nccn2)C1` [Example 17, methyl 4-cyano-2-{[(3R,6R)-6-methyl-1-{[4-methyl-2-(2H-1,2,3-triazol-2-yl)phenyl]carbonyl}piperidin-3-yl]oxy}pyridine-3-carboxylate] are 0.58 nM and 24.3 nM.
For the molecule `COC(=O)c1c(C#N)ccnc1O[C@@H]1CC[C@@H](C)N(C(=O)c2cccc(F)c2-c2ncccn2)C1` [Example 21, methyl 4-cyano-2-({(3R,6R)-1-[(3-fluoro-2-pyrimidin-2-ylphenyl)carbonyl]-6-methylpiperidin-3-yl}oxy)pyridine-3-carboxylate], the Ki on human orexin-2 receptor [1] amounted to 1.2 nM. The same molecule displayed an IC50 on human orexin-2 receptor [2] of 36.3 nM.
On the same counts, the results for `COC(=O)c1c(C#N)ccnc1O[C@@H]1CC[C@@H](C)N(C(=O)c2c(F)cccc2-c2ncccn2)C1` [Example 24, methyl 4-cyano-2-({(3R,6R)-1-[(2-fluoro-6-pyrimidin-2-ylphenyl)carbonyl]-6-methylpiperidin-3-yl}oxy)pyridine-3-carboxylate] are 0.42 nM and 32.8 nM.
On the same counts, the results for `COC(=O)c1c(C#N)ccnc1O[C@@H]1CC[C@@H](C)N(C(=O)c2ccccc2C2CCC2)C1` [Example 26, Methyl 4-cyano-2-(((3R,6R)-1-(2-cyclobutylbenzoyl)-6-methylpiperidin-3-yl)oxy)nicotinate] are 0.26 nM and 19.3 nM.
